Source: patent US11377442B2, “Small molecule agonists and antagonists of NR2F6 activity” (ZANDER THERAPEUTICS, INC., priority 2016, dated 2022)
Like-named read-outs stand apart in the source and are kept apart here. Each block holds one compound with its values, some of them ahead of it.

Assays:
Assay type in all cases: cell-based
HEK293 pGL4 = experiment: Firefly_pGL signal, cmpd/DMSO (pGL4 control cells); settings: Homo sapiens
NR2F6 = target: T1, NR2F6 (Homo sapiens, UniProt P10588); experiment: NR2F6 agonist screening, Firefly signal cmpd/DMSO
T1 construct: expressed in transfected cells; also transient transfection
T1 sequence (P10588 1-404): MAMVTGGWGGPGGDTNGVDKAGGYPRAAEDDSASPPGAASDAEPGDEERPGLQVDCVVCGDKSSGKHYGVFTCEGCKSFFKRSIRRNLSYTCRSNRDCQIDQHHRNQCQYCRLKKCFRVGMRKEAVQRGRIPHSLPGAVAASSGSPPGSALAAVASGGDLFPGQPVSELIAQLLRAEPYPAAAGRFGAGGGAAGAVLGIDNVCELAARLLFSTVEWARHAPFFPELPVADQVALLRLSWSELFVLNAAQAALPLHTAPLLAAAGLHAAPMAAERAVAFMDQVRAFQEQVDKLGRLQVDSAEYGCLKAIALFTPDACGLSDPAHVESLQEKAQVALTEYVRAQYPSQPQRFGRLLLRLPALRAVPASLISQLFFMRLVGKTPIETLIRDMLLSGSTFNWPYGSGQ

Renilla = Renilla signal in NR2F6 agonist screening, cmpd/DMSO; settings: Renilla, F4
NR2F6 LBD = target: T2, NR2F6 LBD (Homo sapiens, UniProt P10588); experiment: NR2F6 LBD transient transfection; settings: LBD
T2 construct: expressed in transfected cells
T2 sequence (P10588 165-393 limits assumed): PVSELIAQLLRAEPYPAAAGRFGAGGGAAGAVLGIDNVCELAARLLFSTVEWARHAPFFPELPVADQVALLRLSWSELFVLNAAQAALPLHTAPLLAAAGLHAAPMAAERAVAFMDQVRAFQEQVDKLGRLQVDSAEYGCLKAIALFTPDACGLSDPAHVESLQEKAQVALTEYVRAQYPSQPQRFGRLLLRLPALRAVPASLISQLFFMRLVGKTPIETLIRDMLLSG
In short: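 LBD-transfected cells treated at 40, 10, 2 and 0.5 μM (4 replicates); cytotoxicity measured in parallel, normalized to DMSO (0%) and zero signal (100%). Higher concentrations excluded where signal loss reflected toxicity.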

[1] = HEK293, 0.5 uM, pGL4, read-out: Firefly pGL4, cmpd/DMSO (mean)
[2] = HEK293, 2 uM, pGL4, read-out: Firefly pGL4, cmpd/DMSO (mean)
[3] = HEK293, 10 uM, pGL4, read-out: Firefly pGL4, cmpd/DMSO (mean)
[4] = HEK293, 40 uM, pGL4, read-out: Firefly pGL4, cmpd/DMSO (mean)
[5] = HEK293, pGL4, 1% FBS, 0.5 uM, read-out: Firefly, pGL4, 1% FBS, cmpd/DMSO (mean)
[6] = HEK293, pGL4, 1% FBS, 2 uM, read-out: Firefly, pGL4, 1% FBS, cmpd/DMSO (mean)
[7] = HEK293, pGL4, 1% FBS, 10 uM, read-out: Firefly, pGL4, 1% FBS, cmpd/DMSO (mean)
[8] = HEK293, pGL4, 1% FBS, 40 uM, read-out: Firefly, pGL4, 1% FBS, cmpd/DMSO (mean)
[9] = HEK293, pGL4, 10% FBS, 0.5 uM, read-out: Firefly, pGL4, 10% FBS, cmpd/DMSO (mean)
[10] = HEK293, pGL4, 10% FBS, 2 uM, read-out: Firefly, pGL4, 10% FBS, cmpd/DMSO (mean)
[11] = HEK293, pGL4, 10% FBS, 10 uM, read-out: Firefly, pGL4, 10% FBS, cmpd/DMSO (mean)
[12] = HEK293, pGL4, 10% FBS, 40 uM, read-out: Firefly, pGL4, 10% FBS, cmpd/DMSO (mean)
[13] = read-out: Renilla, F4, cmpd/DMSO (mean)
[14] = 1% FBS, read-out: Renilla, F4, 1% FBS, cmpd/DMSO (mean)
[15] = 10% FBS, read-out: Renilla, F4, 10% FBS, cmpd/DMSO (mean)

Firefly F4, cmpd/DMSO (mean) (NR2F6; 0.5 uM): 1.3 | Firefly F4, cmpd/DMSO (mean) (NR2F6; 2 uM): 2.3 | Firefly F4, cmpd/DMSO (mean) (NR2F6; 10 uM): 4.2 | Firefly F4, cmpd/DMSO (mean) (NR2F6; 40 uM): 0.4 | F4, Firefly/Renilla for S/B(F4) > 3 (NR2F6; 1% FBS, 10 uM): 3.1 | Firefly, F4/pGL4 for S/B(F4) > 3 (NR2F6; 1% FBS, 10 uM): 2.6 | F4, Firefly/Renilla for S/B(F4) > 3 (NR2F6; 10% FBS, 10 uM): 3.3 | Firefly, F4/pGL4 for S/B(F4) > 3 (NR2F6; 10% FBS, 10 uM): 3.0 | F4, Firefly/Renilla for S/B(F4) > 3 (NR2F6; 10% FBS, 40 uM): 1.3 | Firefly, F4/pGL4 for S/B(F4) > 3 (NR2F6; 10% FBS, 40 uM): 2.8 | Firefly, F4, 1% FBS, cmpd/DMSO (mean) (NR2F6; 1% FBS, 0.5 uM): 1.5 | Firefly, F4, 1% FBS, cmpd/DMSO (mean) (NR2F6; 1% FBS, 2 uM): 1.6 | Firefly, F4, 1% FBS, cmpd/DMSO (mean) (NR2F6; 1% FBS, 10 uM): 5.5 | Firefly, F4, 1% FBS, cmpd/DMSO (mean) (NR2F6; 1% FBS, 40 uM): 0.2 | Firefly, F4, 10% FBS, cmpd/DMSO (mean) (NR2F6; 10% FBS, 0.5 uM): 1.3 | Firefly, F4, 10% FBS, cmpd/DMSO (mean) (NR2F6; 10% FBS, 2 uM): 1.4 | Firefly, F4, 10% FBS, cmpd/DMSO (mean) (NR2F6; 10% FBS, 10 uM): 6.5 | Firefly, F4, 10% FBS, cmpd/DMSO (mean) (NR2F6; 10% FBS, 40 uM): 3.1 | Activity, cmpd/DMSO (NR2F6; Table 31): 6.2 | Firefly LBD, cmpd/DMSO (mean) (NR2F6 LBD; 0.5 uM): 1.1 | Firefly LBD, cmpd/DMSO (mean) (NR2F6 LBD; 2 uM): 2.1 | Firefly LBD, cmpd/DMSO (mean) (NR2F6 LBD; 10 uM): 3.2 | Firefly LBD, cmpd/DMSO (mean) (NR2F6 LBD; 40 uM): 0.2
SMILES: C[C@@H]1C[C@H](C)CN([C@H]2CS(=O)(=O)C[C@@H]2S(=O)(=O)c2cccs2)C1 [Compound D109]
fold induction at 0.5 µM (HEK293 pGL4; [1]): 1 | fold induction at 2 µM (HEK293 pGL4; [2]): 1.6 | fold induction at 10 µM (HEK293 pGL4; [3]): 3.6 | fold induction at 40 µM (HEK293 pGL4; [4]): 0.5 | fold induction at 0.5 µM (HEK293 pGL4; [5]): 1.2 | fold induction at 2 µM (HEK293 pGL4; [6]): 1.3 | fold induction at 10 µM (HEK293 pGL4; [7]): 2.1 | fold induction at 40 µM (HEK293 pGL4; [8]): 1.1 | fold induction at 0.5 µM (HEK293 pGL4; [9]): 1.4 | fold induction at 2 µM (HEK293 pGL4; [10]): 1.2 | fold induction at 10 µM (HEK293 pGL4; [11]): 2.2 | fold induction at 40 µM (HEK293 pGL4; [12]): 1.1 | fold induction at 0.5 µM (Renilla; [13]): 1.1 | fold induction at 2 µM (Renilla; [13]): 1.2 | fold induction at 10 µM (Renilla; [13]): 1.6 | fold induction at 40 µM (Renilla; [13]): 0.5 | fold induction at 0.5 µM (Renilla; [14]): 1 | fold induction at 2 µM (Renilla; [14]): 1.3 | fold induction at 10 µM (Renilla; [14]): 1.7 | fold induction at 40 µM (Renilla; [14]): 1.1 | fold induction at 0.5 µM (Renilla; [15]): 1 | fold induction at 2 µM (Renilla; [15]): 1.2 | fold induction at 10 µM (Renilla; [15]): 1.9 | fold induction at 40 µM (Renilla; [15]): 2.4

Firefly F4, cmpd/DMSO (mean) (NR2F6; 0.5 uM): 0.9 | Firefly F4, cmpd/DMSO (mean) (NR2F6; 2 uM): 1.9 | Firefly F4, cmpd/DMSO (mean) (NR2F6; 10 uM): 4.9 | Firefly F4, cmpd/DMSO (mean) (NR2F6; 40 uM): 1.9 | F4, Firefly/Renilla for S/B(F4) > 3 (NR2F6; 1% FBS, 10 uM): 2.3 | Firefly, F4/pGL4 for S/B(F4) > 3 (NR2F6; 1% FBS, 10 uM): 1.2 | F4, Firefly/Renilla for S/B(F4) > 3 (NR2F6; 10% FBS, 10 uM): 2.4 | Firefly, F4/pGL4 for S/B(F4) > 3 (NR2F6; 10% FBS, 10 uM): 1.4 | F4, Firefly/Renilla for S/B(F4) > 3 (NR2F6; 10% FBS, 40 uM): 1.3 | Firefly, F4/pGL4 for S/B(F4) > 3 (NR2F6; 10% FBS, 40 uM): 2.9 | Firefly, F4, 1% FBS, cmpd/DMSO (mean) (NR2F6; 1% FBS, 0.5 uM): 1.5 | Firefly, F4, 1% FBS, cmpd/DMSO (mean) (NR2F6; 1% FBS, 2 uM): 1.2 | Firefly, F4, 1% FBS, cmpd/DMSO (mean) (NR2F6; 1% FBS, 10 uM): 3.9 | Firefly, F4, 1% FBS, cmpd/DMSO (mean) (NR2F6; 1% FBS, 40 uM): 0.1 | Firefly, F4, 10% FBS, cmpd/DMSO (mean) (NR2F6; 10% FBS, 0.5 uM): 1.2 | Firefly, F4, 10% FBS, cmpd/DMSO (mean) (NR2F6; 10% FBS, 2 uM): 1.4 | Firefly, F4, 10% FBS, cmpd/DMSO (mean) (NR2F6; 10% FBS, 10 uM): 3.3 | Firefly, F4, 10% FBS, cmpd/DMSO (mean) (NR2F6; 10% FBS, 40 uM): 3.4 | Firefly LBD, cmpd/DMSO (mean) (NR2F6 LBD; 0.5 uM): 1.0 | Firefly LBD, cmpd/DMSO (mean) (NR2F6 LBD; 2 uM): 1.5 | Firefly LBD, cmpd/DMSO (mean) (NR2F6 LBD; 10 uM): 3.6 | Firefly LBD, cmpd/DMSO (mean) (NR2F6 LBD; 40 uM): 0.7
SMILES: CCC(C)N[C@H]1CS(=O)(=O)C[C@@H]1S(=O)(=O)c1ccc(Cl)cc1 (stereo partly drawn) [Compound D121]
fold induction at 0.5 µM (HEK293 pGL4; [1]): 1.4 | fold induction at 2 µM (HEK293 pGL4; [2]): 1.6 | fold induction at 10 µM (HEK293 pGL4; [3]): 3.9 | fold induction at 40 µM (HEK293 pGL4; [4]): 0.7 | fold induction at 0.5 µM (HEK293 pGL4; [5]): 1.1 | fold induction at 2 µM (HEK293 pGL4; [6]): 1.1 | fold induction at 10 µM (HEK293 pGL4; [7]): 3.2 | fold induction at 40 µM (HEK293 pGL4; [8]): 0.8 | fold induction at 0.5 µM (HEK293 pGL4; [9]): 1.1 | fold induction at 2 µM (HEK293 pGL4; [10]): 1.4 | fold induction at 10 µM (HEK293 pGL4; [11]): 2.4 | fold induction at 40 µM (HEK293 pGL4; [12]): 1.2 | fold induction at 0.5 µM (Renilla; [13]): 1.2 | fold induction at 2 µM (Renilla; [13]): 1.1 | fold induction at 10 µM (Renilla; [13]): 1.5 | fold induction at 40 µM (Renilla; [13]): 1.7 | fold induction at 0.5 µM (Renilla; [14]): 1.1 | fold induction at 2 µM (Renilla; [14]): 1.4 | fold induction at 10 µM (Renilla; [14]): 1.7 | fold induction at 40 µM (Renilla; [14]): 1.3 | fold induction at 0.5 µM (Renilla; [15]): 1 | fold induction at 2 µM (Renilla; [15]): 1.1 | fold induction at 10 µM (Renilla; [15]): 1.4 | fold induction at 40 µM (Renilla; [15]): 2.6
